# In PubChem BioAssay (NCI):
# “And” between values parts separate entries of the source, which are not always exact repeats. Equal entries are not always repeated.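 Compound exposure: 48 hours, 5 concentrations, 96-well plates. GI50 = concentration required for 50% inhibition of growth. TGI: concentration producing complete growth inhibition.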
# Columns and labels:
# Test in all cases: inhibition of tumour cell growth, NCI panel, 48 h
# [1] = test system: EKVX NSCLC
# [2] = test system: HOP-92 NSCLC
# [3] = test system: HS 578T breast
# [4] = test system: HT29 colon
# [5] = test system: M14 melanoma
# [6] = test system: MOLT-4 leukemia
# [7] = test system: NCI-H522 lung
# [8] = test system: OVCAR-3 ovarian
# [9] = test system: OVCAR-8 ovarian
# [10] = test system: RPMI-8226 leukemia
# [11] = test system: SN12C renal
# [12] = test system: SR leukemia
# [13] = test system: UO-31 renal
# [14] = test system: HCC-2998 colon
SMILES,TGI [1],TGI [2] [µM],TGI [3] [µM],TGI [4] [µM],TGI [5],TGI [6] [µM],TGI [7] [µM],TGI [8],TGI [9] [µM],TGI [10] [µM],TGI [11] [µM],TGI [12],TGI [13],TGI [14] [µM],GI50 [2] [µM],GI50 [5] [µM],GI50 [6] [µM],GI50 [9] [µM],GI50 [10] [µM],GI50 [12] [µM]
c1ccc(C[n+]2cccc(-c3cc4ccccc4[nH]3)c2)cc1,> 100 µM,54,> 100,> 100,55.2 µM,91.1,53.9,> 100 µM,> 100,41.2,42.6,> 100 µM,> 100 µM,–,–,–,–,–,–,–
CCCCC(=O)Oc1ccc2c(C)cc(=O)oc2c1,> 100 µM,> 100,> 100,> 100,> 100 µM,> 100,> 100,> 100 µM,> 100,> 100,> 100,> 100 µM,> 100 µM,> 100,–,–,–,–,–,–
COc1ccc(Cc2nccc3cc(OC)c(OC)cc23)cc1OC,> 100 µM,> 100,> 100,> 100,> 100 µM,> 100,> 100,> 100 µM,> 100,> 100,> 100,> 100 µM,> 100 µM,> 100,–,–,–,–,–,–
c1ccc(-c2nnc(-c3nsc4ccccc34)o2)cc1,> 100 µM,> 100,–,> 100,> 100 µM,> 100,–,> 100 µM,> 100,> 100,> 100,–,> 100 µM,> 100,–,–,–,–,–,–
CCOC(=O)C1=C(C)N(NC(N)=O)C2(O)CCCC(=O)C12C (stereo not drawn),–,> 100,–,> 100,> 100 µM,–,> 100,> 100 µM,> 100,> 100,> 100,–,–,> 100,–,–,–,–,–,–
CC(C)C1OC(/C=C/c2ccccc2)OCC1(C)C (stereo not drawn),82.3 µM,52.5,88.7,> 100,> 100 µM,–,32.2,44.9 µM,> 100,47,44,> 100 µM,> 100 µM,38.5,–,–,–,–,–,–
O=C(O)c1oc(C(=O)O)c(C(=O)O)c1C(=O)O,> 100 µM,> 100,> 100,> 100,> 100 µM,> 100,> 100,> 100 µM,> 100,> 100,> 100,> 100 µM,> 100 µM,–,–,–,–,–,–,–
COc1cccc(CC2Cc3ccccc3CC(=O)N2)c1 (stereo not drawn),> 100 µM,> 100,68.2,> 100,93.3 µM,> 100,–,> 100 µM,> 100,> 100,> 100,> 100 µM,> 100 µM,> 100,–,–,–,–,–,–
CCCCS(=O)(=O)Nc1ccc(Nc2c3ccccc3nc3ccccc23)c(OC)c1,14.4 µM,9.08,–,6.37,–,3.97,18.7,16.3 µM,13.3,> 21.4,5.77,–,10.2 µM,16.7,–,–,–,–,–,–
N=C(N)SCc1cccc2c(=O)cc(-c3ccccc3)oc12,37.9 µM,16.9,45.4,24.8,27.5 µM,8.79,13.6,23.1 µM,29.8,18.4,25.9,> 100 µM,11.3 µM,27.1,–,–,–,–,–,–
C/C(=C\c1ccc(Cl)c(Cl)c1)[N+](=O)[O-],3.9 µM and 4.58 µM,2.99,9.44,5.9,3.13 µM and 3.16 µM,> 100,3.14,3.08 µM and 3.47 µM,3.4,3.17,4.08,11.4 µM and 6.68 µM,2.61 µM and 2.66 µM,8.25,1.43,1.57,2.58,1.62,0.538,2.38
OC1CN2Cc3cc4c(cc3[C@]13C=C[C@@H](O)CC23)OCO4 (stereo partly drawn),94.5 µM,86.8,> 100,> 100,> 100 µM,> 100,> 100,> 100 µM,> 100,> 100,> 100,> 100 µM,> 100 µM,–,–,–,–,–,–,–
NC(CCOCCP(=O)(O)CCOCCC(N)C(=O)O)C(=O)O (stereo not drawn),> 100 µM,> 100,> 100,> 100,> 100 µM,> 100,> 100,> 100 µM,> 100,> 100,> 100,> 100 µM,> 100 µM,> 100,–,–,–,–,–,–
O=C(O)C12CCCC(CCC1)C2,> 100 µM,> 100,–,> 100,> 100 µM,> 100,> 100,> 100 µM,> 100,> 100,> 100,–,> 100 µM,–,–,–,–,–,–,–
O=C1OCc2cccc3c2-c2c1cccc2C(=O)OC3,> 100 µM,92.2,–,> 100,> 100 µM,> 100,–,> 100 µM,> 100,> 100,–,> 100 µM,> 100 µM,> 100,–,–,–,–,–,–
CC(C)NCCC(O)c1cc2ccccc2o1 (stereo not drawn),> 100 µM,> 100,> 100,> 100,> 100 µM,49.2,> 100,> 100 µM,> 100,> 100,> 100,–,> 100 µM,–,–,–,–,–,–,–
O=C1/C(=C/c2ccc(Cl)cc2)N=C(c2ccccc2)N1c1ccc(S(=O)(=O)Nc2nccs2)cc1,> 100 µM,90.7,> 100,56.3,> 100 µM,83.2,–,> 100 µM,–,49.5,> 100,> 100 µM,> 100 µM,47.4,–,–,–,–,–,–
